Test results taken from patent US11274090B2, “P300/CBP HAT inhibitors” (Constellation Pharmaceuticals, Inc., priority 2018, dated 2022).

Target: p300 HAT domain (residues 1287-1666) (Homo sapiens (Human), UniProt Q09472)
Experiment: p300 HAT SPA assay (scintillation proximity assay, acetylation of biotinylated H3(1-21) peptide)
Type: biochemical
Settings: average of at least 2 replicate titrations
Procedure, shortened: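 Purified p300 HAT domain reaction transferred to streptavidin plates to capture biotinylated H3(1-21) peptide, incubated 1.5 hr at RT, and read by scintillation proximity. IC50 values derived from concentration-response data.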

Chain of p300 HAT domain (residues 1287-1666) (Q09472 1287-1666): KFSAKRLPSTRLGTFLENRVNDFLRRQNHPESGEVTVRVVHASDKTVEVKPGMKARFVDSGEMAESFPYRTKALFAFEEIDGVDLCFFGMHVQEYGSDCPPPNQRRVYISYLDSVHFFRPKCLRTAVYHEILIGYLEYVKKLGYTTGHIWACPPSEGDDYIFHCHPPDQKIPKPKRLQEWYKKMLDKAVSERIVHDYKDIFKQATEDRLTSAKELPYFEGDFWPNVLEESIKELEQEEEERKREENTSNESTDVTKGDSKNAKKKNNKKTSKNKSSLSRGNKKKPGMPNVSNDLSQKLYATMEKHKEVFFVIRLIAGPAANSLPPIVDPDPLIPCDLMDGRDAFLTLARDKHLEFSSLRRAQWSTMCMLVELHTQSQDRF

| Compound | IC50 |
| --- | --- |
| CO[C@@H]1CCN(c2ccc(NC(=O)C(NCC(C)c3ccc(C#N)cc3)c3ccccc3)nc2)C1 (single isomer, unassigned) [92 Isomer 4] | > 2000 nM |
| N#Cc1ccc(CCNC(C(=O)Nc2ccn(-c3ccccc3)n2)c2ccccc2)cc1 (single isomer, unassigned) [50 Isomer 1] | 279 nM |
| CN1CCN(c2ccc(NC(=O)C(NCCc3ccc(C#N)cc3)c3ccccc3)nc2)CC1 (single isomer, unassigned) [49 Isomer 2] | > 5000 nM |
| Cn1cc(-c2ccc(NC(=O)C(NCC(c3ccc(C#N)cc3)C(F)(F)F)c3ccccc3)nc2)cn1 (single isomer, unassigned) [149 Isomer 1] | > 2000 nM |
| Cc1ncn(-c2ccc(NC(=O)C(NCCc3ccc(C#N)cc3)c3ccccc3)nc2)n1 (single isomer, unassigned) [73 Isomer 2] | 197 nM |
| C[C@H](CNC(C(=O)Nc1ccc(-c2ccc(=O)n(C)n2)cn1)c1ccccc1)c1ccc(C#N)cc1 (single isomer, unassigned) [134 Isomer 1] | > 2000 nM |
| CC(CNC(C(=O)Nc1ccc(-c2cnn(C(C)(C)CO)c2)cn1)c1ccccc1)c1ccc(C#N)cc1 (single isomer, unassigned) [8 Isomer 4] | 19.6 nM |
| CC(CNC(C(=O)Nc1ccc(-c2cnn(C(F)F)c2)cn1)c1cnn(C)c1)c1ccc(C#N)cc1 (single isomer, unassigned) [128 Isomer 2] | > 2000 nM |
| COc1cc(NC(=O)C(NCCc2ccc(C#N)cc2)c2ccccc2)ccc1-c1cnn(C)c1 (single isomer, unassigned) [25 Isomer 2] | > 5000 nM |
| COc1cccc(C(NCCc2ccc(C#N)cc2)C(=O)Nc2ccc(-c3cnn(C)c3)cn2)c1 (single isomer, unassigned) [70 Isomer 1] | > 2000 nM |
| C[C@H](CNC(C(=O)Nc1ccc(N2CCN(C)C(=O)C2)cn1)c1cccc(F)c1)c1ccc(C#N)cc1 (single isomer, unassigned) [137 Isomer 1] | 783 nM |
| CC(CNC(C(=O)Nc1ccc(N2CCN(CC(F)(F)F)C(=O)C2)cn1)c1ccccc1)c1ccc(C#N)cc1 (single isomer, unassigned) [103 Isomer 2] | 14.3 nM |
| CC(CNC(C(=O)Nc1ccc(-c2cnn(C(F)F)c2)cn1)c1cnn(C)c1)c1ccc(C#N)cc1 (single isomer, unassigned) [128 Isomer 1] | 572 nM |
| CN1CCN(c2ccc(NC(=O)C(NCCc3ccc(C#N)cc3)c3ccccc3)cn2)CC1 (single isomer, unassigned) [36 Isomer 1] | 3270 nM |
| CC(CNC(C(=O)Nc1ccc(-c2cnn(C)c2)cn1)c1ccccc1)c1ccc(C#N)cc1F (single isomer, unassigned) [90 Isomer 1] | 210 nM |
| CC(CNC(C(=O)Nc1ccc(N2CCN(C)C(=O)C2)cn1)c1ccccc1)c1ccc(C#N)cc1 (single isomer, unassigned) [101 Isomer 4] | > 2000 nM |
| Cn1cc(-c2ccc(NC(=O)C(NCC(c3ccc(C#N)cc3)C(F)(F)F)c3ccccc3)nc2)cn1 (single isomer, unassigned) [149 Isomer 3] | 647 nM |
| CC(CNC(C(=O)Nc1ccc(-c2cnn(CC(F)(F)F)c2)cn1)c1ccccc1)c1ccc(C#N)cc1 (single isomer, unassigned) [83 Isomer 4] | 20.6 nM |
| CC1(C)CCN(c2ccc(NC(=O)C(NCCc3ccc(C#N)cc3)c3ccccc3)nc2)CC1 (single isomer, unassigned) [65 Isomer 2] | > 5000 nM |
| Cc1ccc(CCNC(C(=O)Nc2ccc(-c3cnn(C)c3)cn2)c2ccccc2)cn1 (single isomer, unassigned) [141 Isomer 1] | 95.1 nM |
| N#Cc1ccc(CCNC(C(=O)Nc2ccn(-c3ccccc3)n2)c2ccccc2)cc1 (single isomer, unassigned) [50 Isomer 2] | > 5000 nM |

| Compound | IC50 |
| --- | --- |
| CCN1CCN(c2ccc(NC(=O)C(NC[C@@H](C)c3ccc(C#N)cc3)c3ccccc3)nc2)CC1=O (single isomer, unassigned) [102 Isomer 1] | 30.8 nM |
| Cc1ncc(C(C)CNC(C(=O)Nc2ccc(-c3cnn(C)c3)cn2)c2ccccc2)cn1 (single isomer, unassigned) [150 Isomer 3] | > 2000 nM |
| N#Cc1ccc(CCNC(C(=O)Nc2ccc(C3CCC3)cn2)c2ccccc2)cc1 (single isomer, unassigned) [46 Isomer 2] | 486 nM |
| Cn1cc(-c2ccc(NC(=O)C(NCCc3ccc(C#N)cc3)C3CCCCC3)nc2)cn1 (single isomer, unassigned) [89 Isomer 2] | 1430 nM |
| Cn1cc(-c2ccc3c(c2)CCCN3C(=O)[C@@H](NCCc2ccc(C#N)cc2)c2ccccc2)cn1 (single isomer, unassigned) [151 Isomer 1] | > 5000 nM |
| Cn1cc(-c2ncc(NC(=O)C(NCCc3ccc(C#N)cc3)c3ccccc3)cn2)cn1 (single isomer, unassigned) [23 Isomer 1] | > 5000 nM |
| NS(=O)(=O)c1ccc(CCN[C@H](C(=O)N2CCc3ccccc32)c2ccccc2)cc1 (single isomer, unassigned) [153 Isomer 2] | 1930 nM |
| CO[C@@H]1CCN(c2ccc(NC(=O)C(NCC(C)c3ccc(C#N)cc3)c3ccccc3)nc2)C1 (single isomer, unassigned) [92 Isomer 2] | 11.5 nM |
| CC(CNC(C(=O)Nc1ccc(-c2cnn(C)c2)cn1)c1ccccc1)c1ccc(C#N)c(F)c1 (single isomer, unassigned) [91 Isomer 4] | 401 nM |
| Cn1cc(-c2ccc(NC(=O)C(NCCc3ccc(C#N)cc3)c3ccccc3)nn2)cn1 (single isomer, unassigned) [57 Isomer 1] | 815 nM |
| Cn1cc(-c2ccc(NC(=O)C(NCCc3ccc(C#N)cc3)c3ccccc3Cl)nc2)cn1 (single isomer, unassigned) [88 Isomer 1] | 65.4 nM |
| N#Cc1ccc(CCNC(C(=O)Nc2ccn(C3CCOCC3)n2)c2ccccc2)cc1 (single isomer, unassigned) [30 Isomer 1] | > 5000 nM |
| Cn1cc(-c2ccc(NC(=O)C(NCCc3ccc(C#N)cc3)c3ccccc3)c(Cl)c2)cn1 (single isomer, unassigned) [26 Isomer 2] | 1850 nM |
| CN1CCN(c2ccc(NC(=O)C(NCCc3ccc(C#N)cc3)c3ccccc3)cn2)CC1 (single isomer, unassigned) [36 Isomer 2] | > 5000 nM |
| N#Cc1ccc(CCNC(C(=O)Nc2ccc(-c3cccnn3)cc2)c2ccccc2)cc1 (single isomer, unassigned) [12 Isomer 1] | > 5000 nM |
| Cc1ncc(-c2ccc(NC(=O)[C@H](NC[C@H](C)c3ccc(C#N)cc3)c3ccccc3)nc2)cn1 (single isomer, unassigned; isomer 4) [6 Isomer 4] | 20.9 nM |
| C[C@H](CNC(C(=O)Nc1ccc(C2CC(=O)N(C)C2)cn1)c1ccccc1)c1ccc(C#N)cc1 (single isomer, unassigned) [109 Isomer 3] | 61.3 nM |
| CC(CNC(C(=O)Nc1ccc(N2CCN(CC(F)(F)F)C(=O)C2)cn1)c1ccccc1)c1ccc(C#N)cc1 (single isomer, unassigned) [103 Isomer 3] | 1000 nM |
| CC1CN(C)C(=O)CN1c1ccc(NC(=O)C(NC[C@@H](C)c2ccc(C#N)cc2)c2ccccc2)nc1 (single isomer, unassigned) [125 Isomer 4] | 19.6 nM |
| CCN(CC)C(=O)C1CCN(c2ccc(NC(=O)C(NCCc3ccc(C#N)cc3)c3ccccc3)nc2)CC1 (single isomer, unassigned) [64 Isomer 2] | 568 nM |
